The record followed here is PMC9653649 (Molecules, 2022).

For data set [1], the system named is Human Dermal Fibroblast (HDF) cell line. Description: Cell viability using MTT assay. Format: cell-based. To be noted: 24 h, 0.1-100 µM, read-out: IC50 against fibroblast cells. How it is done: The synthesized compounds were screened for their cytotoxic activities against fibroblast cell lines at different concentrations for 24 h using MTT assay. […] Human Dermal Fibroblast (HDF) cell line was bought from the American Type Culture Collection (ATCC; Minnesota, USAHB-8065). It was cultured in Park Memorial Institute (RPMI-1640) culture media with glutamine 2 mM (bio west, Nampa, cat. no. L0498-500), 10% fetal bovine serum (PAA, Pasching Austria, cat. no. A11-151) and penicillin with streptomycin 1% (Lonza, Verviers, Belgium, cat. no. DE17-602E). The HDF cells were grown in 50 cm^2 flask (Greinerbio-one GmbH Maybach-str. 272636 Frickenhausen, Germany) and preserved in a typical humidified incubator supplied with 5% CO2, 95% air at 37 °C (New Brunswick Scientific-Innova co-170). Cells were washed with cold phosphate-buffered saline, trypsinized, harvested and centrifuged to form cell pellets. The cultured HDFa were plated in 96 well microplates at a concentration of 5 × 10^4 cells per well 24 h before the MTT assay to allow microplate adherence. MTT Reagent was provided, prepared for use, and acquired from Biospes, China, Cat n#BAR1005-1. According to the manufacturer protocol, the cultured cells were presented with different concentrations of the assessed agents. 20 μL of MTT solution was filled with each well. For 4 h, the plate was kept at 37 °C. After incubation, 100 μL of formazan diluent buffer (Biospes, Chongqing, China, Cat n#BAR1005-1) was poured into each well. ELISA plate reader (Stat Fax 2200, Awareness Technologies, Palm City, FL, USA) measured color absorbance at 540 nm. Three readings were taken on three different days and averaged for each sample. At last, cell survival was determined according to the following equation: %cell survival=Asample/Acontrol×100% Acontrol is the absorbance of the cell culture after adding MTT and formazan buffer, but without treatment by any drug candidate. […] IC50 values were then calculated by curve-fitting involving non-linear regression. […]

The next data set has as its target T1, human recombinant COX-2 (Homo sapiens, UniProt P35354).
T1 sequence (P35354 18-604): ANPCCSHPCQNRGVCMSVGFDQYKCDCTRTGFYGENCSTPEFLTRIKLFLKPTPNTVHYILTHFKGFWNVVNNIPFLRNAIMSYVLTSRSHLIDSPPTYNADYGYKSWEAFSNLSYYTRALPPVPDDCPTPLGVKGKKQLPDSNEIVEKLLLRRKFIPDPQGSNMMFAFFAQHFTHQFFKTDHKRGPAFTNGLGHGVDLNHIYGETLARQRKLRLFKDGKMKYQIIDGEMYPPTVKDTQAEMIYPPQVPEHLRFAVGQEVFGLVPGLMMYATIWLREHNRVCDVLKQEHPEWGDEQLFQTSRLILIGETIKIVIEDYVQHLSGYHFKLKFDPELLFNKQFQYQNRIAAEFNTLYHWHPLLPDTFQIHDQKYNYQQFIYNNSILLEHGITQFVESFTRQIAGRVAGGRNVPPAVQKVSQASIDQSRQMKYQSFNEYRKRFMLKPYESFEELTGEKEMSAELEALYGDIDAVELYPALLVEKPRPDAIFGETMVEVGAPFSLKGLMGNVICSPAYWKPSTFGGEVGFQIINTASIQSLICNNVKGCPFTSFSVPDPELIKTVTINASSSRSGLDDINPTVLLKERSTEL
Description: In vitro COX-2 isozyme inhibition assay (EIA/ELISA kit, Cayman). The note with it: for COX-2 SI (COX-1 IC50/COX-2 IC50): selectivity index.

The next data set concerns COX-2. As to the kind of experiment: Western blot analysis of COX-2. The note with it: versus untreated control. Format: cell-based. The source says:
(§1) The anti-inflammatory activities of compounds HI and HL were further confirmed by Western blotting analysis of COX-1/COX-2.
(§2) For validating the anti-inflammatory pathway at the protein expression level, we used the immunoblotting (Western blot) technique.

Another data set concerns the target T2, ovine COX-1 (Ovis aries, UniProt P05979).
T2 sequence (P05979 25-600): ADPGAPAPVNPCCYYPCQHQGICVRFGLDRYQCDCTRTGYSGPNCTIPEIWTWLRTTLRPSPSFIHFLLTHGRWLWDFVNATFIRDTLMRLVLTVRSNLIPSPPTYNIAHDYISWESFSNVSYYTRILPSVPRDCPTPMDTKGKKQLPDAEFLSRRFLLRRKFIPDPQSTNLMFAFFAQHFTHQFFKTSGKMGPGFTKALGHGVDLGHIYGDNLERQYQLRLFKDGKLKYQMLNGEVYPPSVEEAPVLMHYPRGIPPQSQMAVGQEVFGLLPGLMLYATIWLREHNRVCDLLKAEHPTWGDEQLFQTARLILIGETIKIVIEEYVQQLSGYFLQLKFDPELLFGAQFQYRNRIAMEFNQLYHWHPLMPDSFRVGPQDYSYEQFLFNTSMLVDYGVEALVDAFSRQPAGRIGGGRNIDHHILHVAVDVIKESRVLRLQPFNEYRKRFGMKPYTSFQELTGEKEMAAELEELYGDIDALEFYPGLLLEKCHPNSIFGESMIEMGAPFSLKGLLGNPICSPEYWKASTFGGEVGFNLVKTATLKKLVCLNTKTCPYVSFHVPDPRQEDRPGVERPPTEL
As to the kind of experiment: In vitro COX-1 isozyme inhibition assay (EIA/ELISA kit, Cayman).

A short description of data set [2]: Solubility examined in various solvents. Format: physicochemical. The note with it: organic solvents. The source says:
. H% = 7.46 (7.51); N% = 8.63 (8.55), calc. (found), respectively (Table 1).

In a further data set the test system is COX-1. Description: Western blot analysis of COX-1. Format: cell-based. To be noted: versus untreated control.
Excerpt: as §1, §2

Each structure is given as a SMILES string.

As for `CC(C)Cc1ccc(C(C)C(=O)NN=Cc2ccccc2O)cc1` (stereo not drawn) [HL], the IC50 in data set [1] was found to be 4.13 µM; at human recombinant COX-2 it was 4.9 µM; at ovine COX-1 it was 8.6 µM. For the same compound, at human recombinant COX-2, the “COX-2 SI (COX-1 IC50/COX-2 IC50)” value turned out to be 1.8. Also, the “COX-2 protein level by Western blot” value in the data set with COX-2 was “downregulation”. Further, the Solubility in solvents entry in data set [2] was “soluble in DMSO, DMF, ethanol, methanol, and acetonitrile”. Further, in the data set with COX-1, the “COX-1 protein level by Western blot” value is “downregulation”.

In the case of `CC(C)Cc1ccc(C(C)C(=O)O)cc1` (stereo not drawn) [Ibuprofen, reference compound], the IC50 in data set [1] turned out to be 30.6 µM.

With `CC(C)Cc1ccc(C(C)C(=O)NN)cc1` (stereo not drawn) [HI, 2-(4-Isobutylphenyl) Propane Hydrazide], the melting point came to 85 °C. Also, the IC50 in data set [1] is 3.9 µM. Moreover, on human recombinant COX-2, the concentration for half-maximal inhibition (IC50) was determined as 4.3 µM and the “COX-2 SI (COX-1 IC50/COX-2 IC50)” value came out at 1.7. In addition, the “COX-2 protein level by Western blot” value with COX-2 is on record as “downregulation”. The compound also returned an IC50 against ovine COX-1 of 7.5 µM. Also, the “COX-1 protein level by Western blot” value in the data set with COX-1 is “downregulation”.
